Data published in patent publication US12264173B2 (GILEAD SCIENCES, INC., priority 2020, dated 2025).
pEC50: −log10 of the molar value. Read-outs that look alike come from different tables or passages of the source.

How the values were obtained:
Assay type in all cases: cell-based
RSV A2 = assay: RSV NHBE EC50 (RSV A2 antiviral assay in NHBE cells); conditions: Table 3, NHBE cells, RSV A2, 4 days, read-out: RSV NHBE EC50
Summary of the method: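 Step 1: seed NHBE cells (7,500/well, BEGM) overnight. Step 2: add 3-fold diluted compound, DMSO 0.05%. Step 3: infect with RSV A2, 1×10^4.5 TCID/mL; incubate 4 days, 37° C. Step 4: CellTiter-Glo luminescence.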

RSV strain A2 = assay: microbe, parasite or virus in culture; conditions: Table 3, HEp-2 cells, RSV A2, 4 days, read-out: RSV HEp-2 EC50
Summary of the method: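 Cytopathic-effect protection assay: HEp-2 cells (50,000/mL) infected with pre-titered RSV A2 onto 3-fold serial compound dilutions, incubated 4 days at 37° C. Cell viability read by CellTiter-Glo luminescence; percent inhibition derived against 0% and 100% virus-inhibition controls.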

HRV16 = HRV16 HeLa EC50 (cytopathic effect in H1-HeLa cells)
Experimental: H1-HeLa cells, cultured in complete DMEM medium containing 10% heat-inactivated FBS and 1% Penicillin/Streptomycin, were seeded in 96 well plates at 3000 cells/well one day prior to compound dosing and infection. The antiviral activity of each compound was measured in triplicate. Compounds were added directly to the cell cultures in serial 3-fold dilutions using the HP300 digital dispenser (Hewlett Packard, Palo Alto, CA) immediately prior to infection. The plates were transferred to BSL-2 containment and the appropriate dilution of virus stock, previously determined by titration and prepared in cell culture media, was added to test plates containing cells and serially diluted compounds. Each plate included 6 wells of infected untreated cells and 6 wells of uninfected cells that served as 0% and 100% virus inhibition control, respectively. Following the infection, test plates were incubated for 96 h in a tissue culture incubator set to 33° C./5% CO2. Following incubation, the H1-HeLa cells were removed from incubation and allowed to equilibrate to 25° C. Cell viability was determined by removing 100 μL of culture medium and adding 100 μL of Cell-Titer Glo viability reagent. The mixtures were incubated on a shaker for 10 minutes at 25° C., and the luminescence signal was quantified on an Envision luminescence plate reader.

DENV2 replicon = assay: DENV-2 Huh-7 Rep EC50 (replicon luminescence)
Experimental: In 384 well plates (Greiner, Cat #781091), compounds were acoustically transferred at 200 nl per well in a 8 compound (4 replicates) or 40 compound dose response format (3 replicates). For all plates tested, Balapiravir, GS-5734 and NITD008 were included as positive inhibition controls alongside 0% inhibition, DMSO-only negative control wells. Following compound addition, Huh-7 cells containing the DENV2 replicon construct were harvested following standard cell culture procedures and were adjusted to a concentration of 1.25E5 cells/mL in cell culture media composed of cDMEM without genticin. 40 μL of the cell stock was then added to each well for a final cell density of 5,000 cells/well. Cell and compound mixtures were incubated at 37° C./5% CO2 for 48 hours. Prior to harvesting cells, EnduRen Live Cell Substrate (Promega, Cat #E6481) was prepared by suspending 3.4 mg into 100 uL of DMSO to generate a 60 mM stock solution. The stock solution was then diluted 1:200 in pre-warmed cDMEM and 10 uL of this diluted solution was added to each well of the 384 well plates. Plates were then centrifuged at 500 rpm briefly and were placed on a plate shaker for 2 min. Following mixing, plates were incubated at […] for 1.5 hours prior to measuring luminescence on an Envision luminometer.

[1] = human respiratory syncytial virus, NHBE, 96 h
[2] = human respiratory syncytial virus, HEp-2, 96 h
[3] = 96 h, Table 3; H1-HeLa cells, 96 h; read-out: HRV16 HeLa EC50
[4] = Dengue virus, DENV2, Huh-7, 48 h, read-out: DENV-2 REP Huh7 EC50, Table 3, Huh-7 DENV2 replicon cells, 48 hours
[5] = Dengue virus, DENV2, Huh-7, 48 h, read-out: DENV-2 REP Huh7 EC50
[6] = Table 3; H1-HeLa cells, 96 h; read-out: HRV16 HeLa EC50
[7] = Table 3, Huh-7 DENV2 replicon cells, 48 hours, read-out: DENV-2 REP Huh7 EC50

Compound	pEC50 (RSV A2; [1])	pEC50 (RSV strain A2; [2])	pEC50 (HRV16; [3])	pEC50 (DENV2 replicon; [4])	pEC50 (DENV2 replicon; [5])	pEC50 (RSV A2)	pEC50 (RSV strain A2)	pEC50 (HRV16; [6])	pEC50 (DENV2 replicon; [7])	pEC50 (HRV16; 96 h, read-out: HRV16 HeLa EC50, Table 3; H1-HeLa cells, 96 h)
COC(=O)[C@H](C)NP(=O)(N[C@@H](C)C(=O)OC)OC[C@@]1(C#N)O[C@@H](c2ccc3c(N)ncnn23)[C@H](OC(=O)C(C)C)[C@@H]1OC(=O)C(C)C [Example 149, ((2R,3S,4R,5S)-5-(4-aminopyrrolo[2,1-f][1,2,4]triazin-7-yl)-2-cyano-3,4-diisobutylatetetrahydrofuran-2-yl)methyl bis-methyl L-alaninate phosphate]	7.08	5.94	5.50	< 4.45						
CC(C)OC(=O)[C@H](C)N[P@](=O)(OC[C@@]1(C#N)O[C@@H](c2ccc3c(N)ncnn23)[C@H](OC(=O)CN2CCOCC2)[C@@H]1OC(=O)CN1CCOCC1)Oc1ccccc1 [Example 216, (2R,3S,4S,5S)-5-(4-aminopyrrolo[2,1-f][1,2,4]triazin-7-yl)-2-cyano-2-((((S)-(((S)-1-isopropoxy-1-oxopropan-2-yl)amino)(phenoxy)phosphoryl)oxy)methyl) tetrahydrofuran-3,4-diyl bis(2-morpholinoacetate)]	5.41	6.58	5.46		4.51					
CC(C)OC(=O)[C@H](C)N[P@](=O)(OC[C@@]1(C#N)O[C@@H](c2ccc3c(N)ncnn23)[C@H](OC(=O)C2CCOCC2)[C@@H]1OC(=O)C1CCOCC1)Oc1ccccc1 [Example 156, (2R,3S,4S,5S)-5-(4-aminopyrrolo[2,1-f][1,2,4]triazin-7-yl)-2-cyano-2-((((S)-(((S)-1-isopropoxy-1-oxopropan-2-yl)amino)(phenoxy)phosphoryl)oxy)methyl) tetrahydrofuran-3,4-diyl bis(tetrahydro-2H-pyran-4-carboxylate)]	< 5.30	6.34	4.66		< 4.30					
CCC(=O)O[C@H]1[C@H](c2ccc3c(N)ncnn23)O[C@](C#N)(COP(=O)(N[C@@H](C)C(=O)OC2CCC2)Oc2ccccc2)[C@H]1OC(=O)CC (stereo partly drawn) [Example 195, (2R,3S,4S,5S)-5-(4-aminopyrrolo[2,1-f][1,2,4]triazin-7-yl)-2-cyano-2-((((((S)-1-cyclobutoxy-1-oxopropan-2-yl)amino)(phenoxy)phosphoryl)oxy)methyl) tetrahydrofuran-3,4-diyl dipropionate]						7.23	7.64	6.90	5.19	
CC(=O)OC1[C@H](c2ccc3c(N)ncnn23)O[C@](C#N)(COP(=O)(N[C@@H](C)C(=O)OCC2CCN(CC(F)(F)F)CC2)Oc2ccccc2)[C@H]1OC(C)=O (stereo in doubt) [Example 118, (2R,3S,4R,5S)-5-(4-aminopyrrolo[2,1-f][1,2,4]triazin-7-yl)-2-cyano-2-((((((S)-1-oxo-1-((1-(2,2,2-trifluoroethyl)piperidin-4-yl)methoxy)propan-2-yl)amino)(phenoxy)phosphoryl)oxy)methyl)tetrahydrofuran-3,4-diyl diacetate]	7.59	6.65	6.13		4.26					
CCCOC(=O)[C@H](C)NP(=O)(OC[C@@]1(C#N)O[C@@H](c2ccc3c(N)ncnn23)[C@H](OC(=O)C(C)C)[C@@H]1OC(=O)C(C)C)Oc1ccccc1 (single isomer, unassigned) [Example 191]						8.10	7.64	7.19	5.57	
CCC(=O)O[C@H]1[C@H](c2ccc3c(N)ncnn23)O[C@](C#N)(CO[P@@](=O)(N[C@@H](C)C(=O)OCC2CCOCC2)Oc2ccccc2)[C@H]1OC(=O)CC [Example 108]						8.22	6.66	6.41	4.41	
CCC(CC)COC(=O)[C@H](C)NP(=O)(N[C@@H](C)C(=O)OC1CCCCC1)OC[C@@]1(C#N)O[C@@H](c2ccc3c(N)ncnn23)[C@H](OC(C)=O)[C@@H]1OC(C)=O (stereo partly drawn) [Example 113, (2R,3S,4S,5S)-5-(4-Aminopyrrolo[2,1-f][1,2,4]triazin-7-yl)-2-cyano-2-((((((S)-1-(cyclohexyloxy)-1-oxopropan-2-yl)amino)(((S)-1-(2-ethylbutoxy)-1-oxopropan-2-yl)amino)phosphoryl)oxy)methyl)tetrahydrofuran-3,4-diyl diacetate]		5.71		4.50						5.33
CC(=O)O[C@H]1[C@H](c2ccc3c(N)ncnn23)O[C@](C#N)(CO[P@](=O)(N[C@@H](C)C(=O)OCC2CCN(CC(F)(F)F)CC2)Oc2ccccc2)[C@H]1OC(C)=O [Example 120]							6.79	5.94	4.45	
CC(C)C(=O)O[C@H]1[C@H](c2ccc3c(N)ncnn23)O[C@](C#N)(COP(=O)(N[C@@H](C)C(=O)OCC(C)(C)O)Oc2ccccc2)[C@H]1OC(=O)C(C)C (single isomer, unassigned) [Example 258]						7.47	7.04		4.74	
CC(C)OC(=O)[C@H](C)N[P@](=O)(OC[C@@]1(C#N)O[C@@H](c2ccc3c(N)ncnn23)[C@H](OC(=O)C2COC2)[C@@H]1OC(=O)C1COC1)Oc1ccccc1 [Example 160, (2R,3S,4S,5S)-5-(4-aminopyrrolo[2,1-f][1,2,4]triazin-7-yl)-2-cyano-2-((((S)-(((S)-1-isopropoxy-1-oxopropan-2-yl)amino)(phenoxy)phosphoryl)oxy)methyl) tetrahydrofuran-3,4-diyl bis(oxetane-3-carboxylate)]	6.07	6.69			4.43					
CC(C)OC(=O)[C@H](C)NP(=O)(OCCS(C)(=O)=O)OC[C@@]1(C#N)O[C@@H](c2ccc3c(N)ncnn23)[C@H](OC(=O)C(C)C)[C@@H]1OC(=O)C(C)C (stereo partly drawn) [Example 210, (2R,3S,4S,5S)-5-(4-aminopyrrolo[2,1-f][1,2,4]triazin-7-yl)-2-cyano-2-((((((S)-1-isopropoxy-1-oxopropan-2-yl)amino)(2-(methylsulfonyl)ethoxy)phosphoryl)oxy)methyl)tetrahydrofuran-3,4-diyl bis(2-methylpropanoate)]	5.47	4.44		< 4.45						
CCC(CC)COC(=O)[C@H](C)N[P@](=O)(OC[C@@]1(C#N)O[C@@H](c2ccc3c(N)ncnn23)[C@H](OC(C)=O)[C@@H]1OC(C)=O)Oc1ccccc1 [Example 88, (2R,3S,4S,5S)-5-(4-aminopyrrolo[2,1-f][1,2,4]triazin-7-yl)-2-cyano-2-((((S)-(((S)-1-(2-ethylbutoxy)-1-oxopropan-2-yl)amino)(phenoxy)phosphoryl)oxy)methyl) tetrahydrofuran-3,4-diyl diacetate]	7.38	6.97			5.05					
CC(C)C(=O)O[C@H]1[C@H](c2ccc3c(N)ncnn23)O[C@](C#N)(COP(=O)(N[C@@H](C)C(=O)OC2CC2)Oc2ccccc2)[C@H]1OC(=O)C(C)C (stereo partly drawn) [Example 255, (2R,3S,4S,5S)-5-(4-aminopyrrolo[2,1-f][1,2,4]triazin-7-yl)-2-cyano-2-((((((S)-1-cyclopropoxy-1-oxopropan-2-yl)amino)(phenoxy)phosphoryl)oxy)methyl) tetrahydrofuran-3,4-diyl bis(2-methylpropanoate)]	7.74	7.42			5.54					
